Assay [1] deals with T1, streptavidin (Streptomyces avidinii, UniProt P22629).
T1 construct: purchased Pierce
The assay is described as follows: HABA-competitive binding determination, streptavidin-HABA complex. On the procedure: (§1) After 60 minutes, the absorbance of the complex was monitored at 500 nm. To calculate the IC50s of the selected peptides, the average of three separate trials were fitted to the Hill equation, [formula] where [L] is the total ligand concentration, [L]F is free ligand concentration, [L]B is bound ligand concentration and nH is the Hill coefficient (Hill, The possible effects of the aggregation of the molecules of haemoglobin on its dissociation curves. J Physiol 1910; 40:4-8). […] Best fit equations were calculated using KaleidaGraph (Synergy Software).

Assay [2] deals with T2, avidin (Gallus gallus, UniProt P02701). Nature of the assay: HABA-competitive binding determination, avidin-HABA complex. More on the design: purchased Pierce; species or system chicken. The note with it: linear (uncyclized) peptides; read-out: dissociation constant, avidin, linear peptides. As to the method: as §1
In assay [3] the target is T3, NeutrAvidin (Gallus gallus, UniProt P02701).
T3 construct: purchased Pierce
The assay is described as follows: HABA-competitive binding determination, HABA-NeutrAvidin complex. The note with it: linear (uncyclized) peptides; read-out: dissociation constant, Neutravidin, linear peptides. As to the method:
as §1

For assay [4], the target named is T3, NeutrAvidin. The assay is described as follows: HABA saturation of NeutrAvidin. Format: binding. The note with it: calculated value, supplementary material; read-out: dissociation constant of the HABA-NeutrAvidin complex. On the procedure:
as §1

The target in assay [5] is T2, avidin. The settings on record: pH of 7, literature value; read-out: Kd HABA-avidin; cited from earlier work.
The target in assay [6] is T3, NeutrAvidin. Nature of the assay: Phage-displayed cyclic peptide selection against NeutrAvidin (clone sequencing). It counts as binding. On the procedure:
XL1-Blue E. coli containing the phagemid library vector were grown from glycerol stocks in 5 mL of 2×YT media with glucose and ampicillin selection at 37° C. Titered M13KO7 helper phage (5×10^9 pfu) was added when the culture reached an OD600 of 0.8 and was incubated for 1 hour. The culture was then pelleted via centrifugation, the cells were resuspended in 2×YT with ampicillin and kanamycin, and allowed to grow overnight. After 10 hours of incubation, the culture was again pelleted by centrifugation and the supernatant was filtered through a 0.45 μm sterile filter to remove trace E. coli. The phage was isolated from the supernatant by PEG (polyethylene glycol) precipitation. 1 mL of 20% PEG in 2.5 M NaCl was added to the 5 mL of filtered media. The resulting precipitate was isolated by centrifugation at 18,000 rcf. The phage pellet was resuspended in 5 mL of Tris Buffer A (20 mM Tris-HCl, 150 mM NaCl, and 0.05% Tween 20 at pH=7.4). The phage was then re-precipitated with 1 mL PEG/NaCl, isolated via centrifugation, and resuspended in 1 mL of Tris Buffer A.
100 μL of the phage solution was then exposed to a well of a NeutrAvidin coated polystyrene plate (Pierce) that had been previously rinsed with Tris Buffer A. After 1 hour of incubation, the phage solution was discarded and the well was washed six times for 10 minutes each with 200 μL of Tris Buffer A. Bound phage was eluted with 200 μL of 0.2 M glycine (pH=2.0) by incubation for 10 minutes, followed by neutralization with 40 μL of 2 M Tris base. The input phage and eluted phage were then used to infect two 5 mL tetracycline-selected cultures of XL1 Blue E. coli (OD600=0.8). After 1 hour, the cells were pelleted and resuspended in 5 mL of 2×YT with ampicillin and glucose. […]
Phage display selection and synthesis of NeutrAvidin binding peptides. […] The library was expressed as a fusion to the gene III protein of M13 filamentous bacteriophage, C-terminal to the periplasmic signaling sequence and N-terminal to a peptide linker and the rest of the gene III protein (see supplementary material). […]

Like-named read-outs stand apart in the source and are kept apart here. Where a SMILES comes first, the peptide text is derived from it. Bridges are numbered along the chain shown (N, C = ends).

T1 sequence (P22629 25-183): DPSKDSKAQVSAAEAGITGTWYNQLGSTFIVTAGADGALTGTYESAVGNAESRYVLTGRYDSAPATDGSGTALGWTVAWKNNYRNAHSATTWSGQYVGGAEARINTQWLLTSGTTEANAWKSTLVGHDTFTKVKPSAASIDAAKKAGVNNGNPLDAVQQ
T2 sequence (P02701 25-152): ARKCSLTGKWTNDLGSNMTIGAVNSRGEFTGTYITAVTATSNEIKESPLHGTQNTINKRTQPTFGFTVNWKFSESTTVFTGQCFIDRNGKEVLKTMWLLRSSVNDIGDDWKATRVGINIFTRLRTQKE
T3 sequence (P02701 25-152): as above

Turning to `CC(C)C[C@@H]1NC(=O)[C@H](CC(=O)O)NC(=O)[C@@H](N)CSSC[C@@H](C(=O)NCC(N)=O)NC(=O)[C@H](Cc2c[nH]c3ccccc23)NC(=O)[C@@H]2CCCN2C(=O)[C@H](CO)NC(=O)[C@H](C)NC1=O` [DLASPW] (H-CDLASPWCG-NH2; disulfide 1-8; N-terminus assumed), the Kd in assay [1] is over 5000 µM.

`C[C@@H]1NC(=O)[C@H](CCCNC(=N)N)NC(=O)[C@H](CC(=O)O)NC(=O)[C@@H](N)CSSC[C@@H](C(=O)NCC(N)=O)NC(=O)[C@H](Cc2ccc(O)cc2)NC(=O)[C@@H]2CCCN2C(=O)[C@H](CO)NC1=O` [DRASPY] (H-CDRASPYCG-NH2; disulfide 1-8): the values for the Kd in assay [2], in assay [1] and in assay [3] were under 500 µM, over 5000 µM and under 500 µM, respectively.

As to `C[C@@H]1NC(=O)[C@H](CCCNC(=N)N)NC(=O)[C@H](CC(=O)O)NC(=O)[C@@H](N)CSSC[C@@H](C(=O)NCC(N)=O)NC(=O)[C@H](Cc2ccc(O)cc2)NC(=O)[C@@H]2CCCN2C(=O)[C@H]([C@@H](C)O)NC1=O` [DRATPY] (H-CDRATPYCG-NH2; disulfide 1-8), the Kd was under 500 µM in assay [2], over 5000 µM in assay [1] and under 500 µM in assay [3].

Take `O=C(O)c1ccccc1N=Nc1ccc(O)cc1` [HABA, 4′-hydroxyazobenzene-2-carboxylic acid]: the figures for the Kd in assay [4] and in assay [5] were 15 µM and 7 µM, respectively.

Turning to CDRASPWC [not synthesized], the “% of clones, Round 3” value in assay [6] (round 3, 15 clones sequenced) came out at 20%. For the same compound, the “% of clones, Round 4” value in assay [6] (round 4, 26 clones sequenced) is given as 8%. The “% of clones, Round 5” value in assay [6] (round 5, 40 clones sequenced) amounted to 5%.
